Assay results taken from PubChem BioAssay AID2060327 (Molecular Pharmacology Branch, DTP, NCI, 2025).
“And” between values parts separate entries of the source, which are not always exact repeats. Identical values can stand only once.

Tested on: PC-3 multi-cell spheroids, viability
Assay: Anticancer human tumor PC-3 cell line growth inhibition [IpAb];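 also: spheroids exposed to compounds for 7 days before readout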;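 as to viability, T/C: 100% = DMSO vehicle control wells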
Details: for viability, T/C: stronger effect = lower value
Summary of the method: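 Multi-cell spheroids of 60% tumour cells, 25% HUVEC and 15% MSC in ultra-low-attachment U-bottom wells, treated with agents combined with ipatasertib or abemaciclib. Half-log ranges top out near clinical Cmax, or 10 microM when Cmax is unknown.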

[1] = curve of first compound, second compound 0.01 µM
[2] = curve of first compound, second compound 0.0316 µM
[3] = curve of first compound, second compound 0.1 µM
[4] = curve of first compound, second compound 0.316 µM
[5] = curve of first compound, second compound 1 µM
[6] = second compound 0.01 µM, first compound 0.0316 µM
[7] = second compound 0.01 µM, first compound 0.1 µM
[8] = second compound 0.0316 µM, first compound 0.0316 µM
[9] = second compound 0.0316 µM, first compound 0.1 µM
[10] = second compound 0.1 µM, first compound 0.0316 µM
[11] = second compound 0.1 µM, first compound 0.1 µM
[12] = second compound 0.316 µM, first compound 0.0316 µM
[13] = second compound 0.316 µM, first compound 0.1 µM
[14] = second compound 1 µM, first compound 0.0316 µM
[15] = second compound 1 µM, first compound 0.1 µM

## CC(C)(C)c1cnc(CSc2cnc(NC(=O)C3CCNCC3)s2)o1 + CCN1CCN(Cc2ccc(Nc3ncc(F)c(-c4cc(F)c5nc(C)n(C(C)C)c5c4)n3)nc2)CC1
[1]
  IC50: 0.175 µM
[2]
  IC50: 0.146 µM
[3]
  IC50: 0.0985 µM
[4]
  IC50: 0.0381 µM
[5]
  IC50: < 0.00949 µM
Second compound 0.01 µM, first compound 0.00949 µM
  viability, T/C: 75.9%
Second compound 0.01 µM, first compound 0.03 µM
  viability, T/C: 103%
Second compound 0.01 µM, first compound 0.0949 µM
  viability, T/C: 113%
Second compound 0.01 µM, first compound 0.3 µM
  viability, T/C: 7.99%
Second compound 0.01 µM, first compound 0.949 µM
  viability, T/C: 6.01%
Second compound 0.01 µM, first compound 3 µM
  viability, T/C: 7.44%
Second compound 0.0316 µM, first compound 0.00949 µM
  viability, T/C: 63.5%
Second compound 0.0316 µM, first compound 0.03 µM
  viability, T/C: 71.5%
Second compound 0.0316 µM, first compound 0.0949 µM
  viability, T/C: 94.4%
Second compound 0.0316 µM, first compound 0.3 µM
  viability, T/C: 4.86%
Second compound 0.0316 µM, first compound 0.949 µM
  viability, T/C: 4.92%
Second compound 0.0316 µM, first compound 3 µM
  viability, T/C: 7.51%
Second compound 0.1 µM, first compound 0.00949 µM
  viability, T/C: 69.1%
Second compound 0.1 µM, first compound 0.03 µM
  viability, T/C: 73.4%
Second compound 0.1 µM, first compound 0.0949 µM
  viability, T/C: 51.5%
Second compound 0.1 µM, first compound 0.3 µM
  viability, T/C: 3.51%
Second compound 0.1 µM, first compound 0.949 µM
  viability, T/C: 6%
Second compound 0.1 µM, first compound 3 µM
  viability, T/C: 7.79%
Second compound 0.316 µM, first compound 0.00949 µM
  viability, T/C: 55.9%
Second compound 0.316 µM, first compound 0.03 µM
  viability, T/C: 54.3%
Second compound 0.316 µM, first compound 0.0949 µM
  viability, T/C: 30.5%
Second compound 0.316 µM, first compound 0.3 µM
  viability, T/C: 4.21%
Second compound 0.316 µM, first compound 0.949 µM
  viability, T/C: 5.66%
Second compound 0.316 µM, first compound 3 µM
  viability, T/C: 7.81%
Second compound 1 µM, first compound 0.00949 µM
  viability, T/C: 44.7%
Second compound 1 µM, first compound 0.03 µM
  viability, T/C: 36.5%
Second compound 1 µM, first compound 0.0949 µM
  viability, T/C: 22.7%
Second compound 1 µM, first compound 0.3 µM
  viability, T/C: 4.97%
Second compound 1 µM, first compound 0.949 µM
  viability, T/C: 7.15%
Second compound 1 µM, first compound 3 µM
  viability, T/C: 8.41%

## C=CC(=O)N1CCN(c2nc(=O)n(-c3c(C)ccnc3C(C)C)c3nc(-c4c(O)cccc4F)c(F)cc23)C(C)C1 (configuration not stated)
Compound 0.0316 µM
  viability, T/C: 108% and 98.7%
Compound 0.1 µM
  viability, T/C: 100% and 108%
Compound 0.316 µM
  viability, T/C: 90.2% and 99.7%
Compound 1 µM
  viability, T/C: 110% and 112%
Compound 3.16 µM
  viability, T/C: 122%
Compound 10 µM
  viability, T/C: 79.6% and 119%
Curve of compound
  IC50: > 10 µM

## Cn1ncnc1[C@H]1c2n[nH]c(=O)c3cc(F)cc(c23)N[C@@H]1c1ccc(F)cc1 + CCN1CCN(Cc2ccc(Nc3ncc(F)c(-c4cc(F)c5nc(C)n(C(C)C)c5c4)n3)nc2)CC1
[1]
  IC50: 0.00902 µM
[2]
  IC50: 0.00223 µM
[3]
  IC50: 0.000803 µM
[4]
  IC50: 0.0284 µM
[5]
  IC50: 0.00512 µM
Second compound 0.01 µM, first compound 0.000316 µM
  viability, T/C: 82%
Second compound 0.01 µM, first compound 0.001 µM
  viability, T/C: 61.4%
Second compound 0.01 µM, first compound 0.00316 µM
  viability, T/C: 60.6%
Second compound 0.01 µM, first compound 0.01 µM
  viability, T/C: 47.1%
[6]
  viability, T/C: 46%
[7]
  viability, T/C: 44.3%
Second compound 0.0316 µM, first compound 0.000316 µM
  viability, T/C: 61.5%
Second compound 0.0316 µM, first compound 0.001 µM
  viability, T/C: 50.8%
Second compound 0.0316 µM, first compound 0.00316 µM
  viability, T/C: 47.3%
Second compound 0.0316 µM, first compound 0.01 µM
  viability, T/C: 49.3%
[8]
  viability, T/C: 48%
[9]
  viability, T/C: 39%
Second compound 0.1 µM, first compound 0.000316 µM
  viability, T/C: 48.2%
Second compound 0.1 µM, first compound 0.001 µM
  viability, T/C: 50.3%
Second compound 0.1 µM, first compound 0.00316 µM
  viability, T/C: 52.1%
Second compound 0.1 µM, first compound 0.01 µM
  viability, T/C: 48.6%
[10]
  viability, T/C: 44%
[11]
  viability, T/C: 42.7%
Second compound 0.316 µM, first compound 0.000316 µM
  viability, T/C: 59.6%
Second compound 0.316 µM, first compound 0.001 µM
  viability, T/C: 58.2%
Second compound 0.316 µM, first compound 0.00316 µM
  viability, T/C: 64%
Second compound 0.316 µM, first compound 0.01 µM
  viability, T/C: 54.5%
[12]
  viability, T/C: 47.6%
[13]
  viability, T/C: 37.8%
Second compound 1 µM, first compound 0.000316 µM
  viability, T/C: 61%
Second compound 1 µM, first compound 0.001 µM
  viability, T/C: 48.8%
Second compound 1 µM, first compound 0.00316 µM
  viability, T/C: 46.5%
Second compound 1 µM, first compound 0.01 µM
  viability, T/C: 49.6%
[14]
  viability, T/C: 44.6%
[15]
  viability, T/C: 29.4%

## Cn1nccc1Nc1nccc(-c2ccn(C(CO)c3ccc(Cl)c(F)c3)c(=O)c2)n1 (configuration not stated) + CCN1CCN(Cc2ccc(Nc3ncc(F)c(-c4cc(F)c5nc(C)n(C(C)C)c5c4)n3)nc2)CC1
[1]
  IC50: > 10 µM
[2]
  IC50: > 10 µM
[3]
  IC50: > 10 µM
[4]
  IC50: > 10 µM
[5]
  IC50: > 10 µM
[6]
  viability, T/C: 87.1%
[7]
  viability, T/C: 78.3%
Second compound 0.01 µM, first compound 0.316 µM
  viability, T/C: 97.1%
Second compound 0.01 µM, first compound 1 µM
  viability, T/C: 114%
Second compound 0.01 µM, first compound 3.16 µM
  viability, T/C: 127%
Second compound 0.01 µM, first compound 10 µM
  viability, T/C: 93.8%
[8]
  viability, T/C: 59.1%
[9]
  viability, T/C: 58%
Second compound 0.0316 µM, first compound 0.316 µM
  viability, T/C: 66.1%
Second compound 0.0316 µM, first compound 1 µM
  viability, T/C: 76.6%
Second compound 0.0316 µM, first compound 3.16 µM
  viability, T/C: 115%
Second compound 0.0316 µM, first compound 10 µM
  viability, T/C: 39.8%
[10]
  viability, T/C: 54.4%
[11]
  viability, T/C: 52.1%
Second compound 0.1 µM, first compound 0.316 µM
  viability, T/C: 55.6%
Second compound 0.1 µM, first compound 1 µM
  viability, T/C: 64.8%
Second compound 0.1 µM, first compound 3.16 µM
  viability, T/C: 87.7%
Second compound 0.1 µM, first compound 10 µM
  viability, T/C: 47.2%
[12]
  viability, T/C: 52.4%
[13]
  viability, T/C: 68.5%
Second compound 0.316 µM, first compound 0.316 µM
  viability, T/C: 64.7%
Second compound 0.316 µM, first compound 1 µM
  viability, T/C: 65.4%
Second compound 0.316 µM, first compound 3.16 µM
  viability, T/C: 72.9%
Second compound 0.316 µM, first compound 10 µM
  viability, T/C: 54.3%
[14]
  viability, T/C: 62.4%
[15]
  viability, T/C: 57.1%
Second compound 1 µM, first compound 0.316 µM
  viability, T/C: 61.2%
Second compound 1 µM, first compound 1 µM
  viability, T/C: 63.2%
Second compound 1 µM, first compound 3.16 µM
  viability, T/C: 92%
Second compound 1 µM, first compound 10 µM
  viability, T/C: 51.5%
